Holding throughout (assay): NCI tumour cell line growth inhibition, 48 h
The subject of assay [1] is LXFL 529 NSCLC.
The test system of assay [2] is DMS 114 small cell lung.
The test system of assay [3] is SNB-78 CNS.
Assay [4] has as its system XF 498 CNS.
Assay [5] relates to DLD-1 colon.
Assay [6] deals with DMS 273 small cell lung.
The subject of assay [7] is MDA-N.
Assay [8] relates to HOP-18 NSCLC.
Assay [9] has as its system RXF-631 renal.
Assay [10] relates to SN12K1 renal.
The subject of assay [11] is P388 leukemia.

SMILES strings stand for the structures. Several values for one entry are separate records, joined by “and”; a condition that tells them apart may be missing. Equal entries are not always repeated.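 Cultured in 96-well plates, cells were exposed to test compound for 48 hours across five concentrations. At the GI50, growth is halved. TGI: concentration producing complete growth inhibition.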

Take `CCP(C)(C)=O`: the TGI in assay [1], in [2], in assay [3], in assay [4], in assay [5] and in assay [6] was above 100 µM each time.
Molecule `CC1=C/C(O)CC(=O)Cc2nc(co2)C(=O)N2CCC=C2C(=O)OC(C(C)C)C(C)/C=C\C(=O)NC/C=C\1` (configuration not stated) came in with a TGI in assay [7] of 67.9 µM.
Still for that read-out and setting: the same measure for `O=C1C(CO)=C[C@@H](O)[C@H]2O[C@@H]12`: above 100 µM.
With `CN(C)CCC(/C=C/c1ccccc1)=N\Nc1ccc(Cl)cc1`, the TGI in [1] stood at 9.26 µM; in assay [2], 5.9 µM; in assay [3], 21.4 µM; in assay [5], 11.1 µM; in assay [6], 4.66 µM; in assay [8] it was 17 µM.
Take `Cc1cc(Cl)cc2c1NC(=O)C2(O)CC(=O)c1ccc(F)cc1` (configuration not stated): the TGI is above 100 µM in assay [3]; 66.4 µM in assay [4]; above 100 µM in assay [5]; above 100 µM in [6]; 90.7 µM in assay [8].
`CN(N=O)C(=O)Nc1ccc(C(=O)O)cc1` had a TGI in assay [7] above 100 µM.
With `Cc1cccc(Cl)c1NC(=O)c1cccc([N+](=O)[O-])c1O`, the TGI in assay [9] was above 100 µM; in [1] it was above 100 µM; in [2] it was 83.1 µM; in [3], above 100 µM; in assay [4] it was above 100 µM; in assay [5] it was above 100 µM. Also, the TGI in [6] and in [8] was above 100 µM in each case.
With `Cc1[nH]c(=O)nc(N/N=C/c2ccc(Cl)cc2)c1C(=O)Nc1ccc(Cl)cc1`, the TGI was above 73.3 µM in assay [1]; 56.1 µM in assay [2]; above 100 µM in assay [7]; above 100 µM in [3]; 25.2 µM in assay [4]; above 100 µM in assay [5]. The figures for the TGI in assay [6] and in assay [8] were above 100 µM and 7.3 µM, respectively.
For the molecule `COc1cc(/C=C2\NC(=S)C3Cc4c(OC)c(C)c(OC)c(OC)c4C2N3C)c(OC)c(C)c1OC` (configuration not stated), the TGI in assay [1] was above 100 µM; in [2], 92.1 µM; in assay [5] it was above 100 µM; in assay [6] it was above 100 µM; in assay [8], above 100 µM.
Molecule `Cc1cccc2c(N=Nc3ccccc3[N+](=O)[O-])c(O)[nH]c12` registered a TGI in assay [7] above 100 µM.
`CC1NCCc2c1[nH]c1cc(O)ccc21` (configuration not stated): the TGI in assay [1], in assay [2], in [3], in assay [4], in assay [5] and in assay [8] was above 100 µM throughout.
As to `C/C=C/C=C/CCCCCCCCCCCCC[C@]1(OC)C=CC(CC(=O)OC)OO1` (some centres not stated), the GI50 is 24 µM in [9], 14.7 µM in assay [1], 24.2 µM in assay [4] and 20.2 µM in [5]. For the same molecule, the TGI in assay [9] was determined as 56 µM; in [1], 28.2 µM; in assay [4], 44.6 µM; in [5] it was 41.9 µM.
As to `CNC(=O)/C(=C/c1ccc(OC)cc1)c1cc(OC)c(OC)c(OC)c1`, the TGI was above 100 µM in assay [9]; above 100 µM in assay [1]; above 21.5 µM in assay [2]; 0.71 µM in assay [7]; above 100 µM in assay [3]; 65.8 µM in assay [4]. Further, the TGI in [5], in assay [6] and in assay [8] was above 100 µM each time.
On to `NC1=NCC(c2ccccn2)C1c1ccc(F)cc1` (configuration not stated), for which the TGI in assay [9], in [1], in assay [2], in [3], in assay [4] and in [5] was above 100 µM throughout. Also, in [8], the TGI was above 100 µM.
Consider `COc1cccc2c1C(=O)c1c(O)c3c(c(O)c1C2=O)C[C@@](O)(C(C)=O)C[C@@H]3OC1CC(O)C(O)C(C)O1` (some centres not stated), for which the GI50 was 1.49 µM in assay [1], 0.333 µM in assay [10] and 0.013 µM in assay [11]. Also, the TGI in assay [1] came out at 15.3 µM; in assay [7] it was 21.4 µM; in [3] it was 59.1 µM; in assay [10] it was 4.96 µM; in assay [11], 0.372 µM; in [5], 15.9 µM. The TGI was 7.84 µM and 3.46 µM in assay [6]; 7.13 µM and 7.74 µM in [8].
Regarding `CC1(C)Cc2nnsc2C2=C1C(=O)CCS2`, the TGI in assay [1], in [2], in assay [5], in assay [6] and in assay [8] was above 100 µM in each case.
Consider `O=C1c2ccccc2C(=O)c2sc(Nc3ccc(Cl)cc3)nc21`, for which the TGI in assay [1] worked out at 3.1 µM; in [2], 3.63 µM; in [3] it was 8.03 µM; in assay [4], 4.7 µM; in assay [5] it was 3.41 µM; in assay [6], 3.74 µM. In assay [8], this molecule gave a TGI of 7.26 µM.
Take `OCCSCC/C(=N\N=C(/CCSCCO)c1ccccc1)c1ccccc1`: the TGI in assay [9], in assay [1], in assay [2], in assay [3], in assay [4] and in [5] was above 100 µM each time. This molecule came in with a TGI in [8] above 100 µM.

The record behind these values is PubChem BioAssay (NCI).
